Measurements: patent publication US20100256199A1, “Crystalline form of an Antimalarial Compound” (Glaxo Group Limited, priority 2007, published 2010)

Columns and labels:
Assay type in all cases: physicochemical
[1] = Stability of the polymorphic forms at ambient temperature
[2] = Competitive ripening experiments between Form 1 and Form 2 (relative thermodynamic stability)
Experimental: Forms 1 and 2 of the compound of Formula (I) are both stable at ambient temperature. Competitive ripening experiments between Form 1 and 2 of the compound of Formula (I) were conducted in i) a mixture of acetone and 1-propanol at 23° C.; ii) in acetone at 10° C. and iii) in acetone at 50° C.

[3] = Hygroscopicity of the crystalline form

| Compound | Stability at ambient temperature [1] | Polymorphic form conversion in competitive ripening experiments ([2]; i) mixture of acetone and 1-propanol at 23° C.; ii) acetone at 10° C.; iii) acetone at 50° C., same outcome in each) | Hygroscopic nature [3] | Relative thermodynamic stability ([2]; at ambient temperatures, for example at 23° C.) | Relative thermodynamic stability ([2]; between 10° C. and 50° C.) |
| --- | --- | --- | --- | --- | --- |
| Cc1[nH]c(CO)c(-c2ccc(Oc3ccc(OC(F)(F)F)cc3)cc2)c(=O)c1Cl [Form 1, 3-chloro-6-(hydroxymethyl)-2-methyl-5-[4-({4-[(trifluoromethyl)oxy]phenyl}oxy)phenyl]-4(1H)-pyridinone] | stable | converted to Form 2 |  |  |  |
| Cc1[nH]c(CO)c(-c2ccc(Oc3ccc(OC(F)(F)F)cc3)cc2)c(=O)c1Cl [Form 2, 3-chloro-6-(hydroxymethyl)-2-methyl-5-[4-({4-[(trifluoromethyl)oxy]phenyl}oxy)phenyl]-4(1H)-pyridinone] |  |  | non-hygroscopic | thermodynamically more stable than Form 1 | thermodynamically more stable than Form 1 |
